Assay results published in patent US9169247B2, “Tetrahydro-beta-carboline derivatives, synthesis and use thereof” (Southern Research Institute, priority 2009, dated 2015).
Entries after “also recorded” stand apart in the source; their conditions may differ.

What was measured:
[1] = test system: normal human mammary epithelial cells (HMEC); experiment: Cytotoxicity to normal cells (growth assay); format: cell-based; conditions: up to a concentration of 10 μM
Description: All human tumor cell lines were obtained from ATCC and grown under standard cell culture conditions at 37° C. in a humidified atmosphere with 5% CO2. Cells were grown in RPMI 1640 supplemented with 5% fetal bovine serum 2 mM glutamine, 100 units/ml penicillin, 100 units/ml streptomycin, and 0.25 μg/ml amphotericin. Cells were harvested at 70 to 90% confluence with trypsin/EDTA and used immediately Cell count and viability was determined by Trypan blue staining followed by hemocytometry. Only cultures displaying >95% cell viability were used for experiments. HMEC were grown according to the specifications from the supplier (Lonzo).
Tissue culture microtiter 96-well plates were seeded with cells at a density of 5,000 cells/well. The plates were incubated for 18-24 hours prior to any treatment. All test compounds were solubilized in 100% DMSO and diluted with media to obtain a final DMSO concentration of 0.1%. Cell viability was measured 72 hours after treatment by the Cell Titer Glo Assay (Promega), which is a luminescent assay that is an indicator of live cells as a function of metabolic activity and ATP content. The assay was performed according to manufacturer's specifications. Luminescence was measured by a Perkin Elmer Victor® multi-label plate reader.^6

[2] = test system: human MDA-MB-231 breast tumor cells; experiment: cGMP assay (intracellular cGMP, immunoassay); format: cell-based; conditions: treated for 30 minutes, FIG. 1
Description: FIG. 1A illustrates the induction of intracellular cGMP levels in cultured human MDA-MB-231 breast tumor cells treated for 30 minutes with compound 2f. […] The + indicates the effects of a positive control, sulindac sulfide tested at 100 μM. The cells were treated for 30 minutes prior to measuring intracellular cGMP levels by immunoassay. The * indicates statistical significance with p<0.05.
Cells were seeded at a density of 1×10^6 cells per 10 cm tissue culture dish, incubated for 48 hours, and treated with the specified compound or vehicle control. After 30 minutes of treatment, cells were lysed and assayed for cGMP content using the cGMP Direct Biotrak EIA kit (GE Biosciences). The assay was performed according to the manufacturer's specifications. Optical density was measured at 630 nm using a Synergy4 (BioTek) plate reader.

## COC(=O)[C@H]1Cc2c([nH]c3ccccc23)[C@H](c2cc(OC)ccc2OC)N1C(=O)CCl [Compound 2f, Methyl (1S,3R)-1-(2,5-dimethoxyphenyl)-2-(2-chloroacetyl)-2,3,4,9-tetrahydro-1H-β-carboline-3-carboxylate]
[1]
  cytotoxicity to normal human mammary epithelial cells (HMEC): insensitive; also recorded: no cytotoxicity
[2]
  intracellular cGMP levels: induction; also recorded: increase
